Literature values in paper PMC10675484, “Characterization and Pharmacokinetic Assessment of a New Berberine Formulation with Enhanced Absorption In Vitro and in Human Volunteers” (Pharmaceutics, 2023).
Read-outs that look alike come from different tables or passages of the source.

Key:
[1] = not given; remark: listed apart in the source
[2] = not given; remark: listed apart in the source
[3] = design: method as in PMID 26851175; settings: orally administered berberine
[4] = 500 mg berberine, within a 2 h period
[5] = 20 study participants, oral 400 mg of berberine
[6] = human volunteers, doses similar to the current study

SMILES: COc1ccc2cc3[n+](cc2c1OC)CCc1cc2c(cc1-3)OCO2 [BCl]
- Biopharmaceutical Classification System class: class III
- Solubility in water: approximately 1.3 mg/mL

SMILES: COc1ccc2c(c1OC)CN1CCc3cc4c(cc3C1=C2)OCO4 [DHB, dihydroberberine]
- Glucose and insulin response ([1]; study participants, during the study period): no significant changes

SMILES: COc1ccc2cc3[n+](cc2c1OC)CCc1cc2c(cc1-3)OCO2 [berberine, 2,3-methylenedioxy-9,10-dimethoxy-protoberberine]
- Absolute bioavailability ([2]; oral administration in rats, ref 23, 24): < 1%
- Absolute bioavailability ([2]; oral administration in rats, ref 24): 0.68%
- Absorption rate in the gut ([2]; oral administration in rats, ref 25): approx. 33.6%
- AUC in the liver relative to plasma ([2]; orally administered berberine 200 mg/kg): 10 fold
- AUC (berberine) [1, 4]: 42.3 ± 17.6 ng·h/mL
- Cmax (berberine) [1, 4]: 0.4 ± 0.17 ng/mL
- Cmax ([1]; 500 mg of berberine in 10 volunteers): 0.07 nM
- Mean AUC0–∞ [1, 5]: ~9.2 ng·h/mL
- Mean Cmax [1, 5]: approx. 0.4 ng/mL
- Fraction of orally administered dose entering the systemic circulation ([1]; human pharmacokinetic studies): ≤ 5%
- AUC (total berberine) [1, 6]: 1.217 ± 0.129 ng·h/mL
- Cmax (total berberine) [1, 6]: 0.31688 ± 0.0266 ng/mL
- Elimination half-life ([1]; oral administration in humans): 2.94 ± 0.14 h
- Fraction metabolized in the enterocytes [3]: approx. 43.5%
